Measurements: ChEMBL document CHEMBL1909046, “DrugMatrix in vitro pharmacology data”

Columns and labels:
[1] = biological target: T1, Alpha-2C adrenergic receptor (Homo sapiens, UniProt P18825); assay: DRUGMATRIX: Adrenergic Alpha-2C radioligand binding (ligand: [3H] MK-912); format: cell membranes, Sf9, Membrane; conditions: sf9
T1 sequence (P18825 whole entry): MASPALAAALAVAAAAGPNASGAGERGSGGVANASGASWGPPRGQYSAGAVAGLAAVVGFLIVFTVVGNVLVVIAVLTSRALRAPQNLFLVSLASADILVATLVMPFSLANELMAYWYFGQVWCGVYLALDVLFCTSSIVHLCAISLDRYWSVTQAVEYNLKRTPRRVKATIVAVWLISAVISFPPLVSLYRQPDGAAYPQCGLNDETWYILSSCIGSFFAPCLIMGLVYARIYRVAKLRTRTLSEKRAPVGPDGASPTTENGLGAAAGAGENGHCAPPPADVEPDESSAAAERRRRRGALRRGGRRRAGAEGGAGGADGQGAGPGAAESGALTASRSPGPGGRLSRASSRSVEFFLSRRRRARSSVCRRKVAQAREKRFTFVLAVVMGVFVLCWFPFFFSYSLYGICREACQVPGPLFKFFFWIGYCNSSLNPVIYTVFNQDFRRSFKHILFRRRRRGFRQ

[2] = DRUGMATRIX: Tumor Necrosis Factor (TNF), Non-Selective radioligand binding (ligand: [125I] TNF-alpha); format: cell membranes, Membrane; conditions: u-937; Not Active = under 50% inhibition at 10 µM
[3] = biological target: C-C chemokine receptor type 2 (Homo sapiens, UniProt P41597); format: cell membranes, CHO-K1, Membrane; conditions: cho-k1; further: in other assays of this panel Not Active means under 50% inhibition at 10 µM
[4] = biological target: T2, Endothelin-1 receptor (Homo sapiens, UniProt P25101); format: cell membranes, Membrane; conditions: cho-k1; further: in other assays of this panel Not Active means under 50% inhibition at 10 µM
T2 sequence (P25101 whole entry): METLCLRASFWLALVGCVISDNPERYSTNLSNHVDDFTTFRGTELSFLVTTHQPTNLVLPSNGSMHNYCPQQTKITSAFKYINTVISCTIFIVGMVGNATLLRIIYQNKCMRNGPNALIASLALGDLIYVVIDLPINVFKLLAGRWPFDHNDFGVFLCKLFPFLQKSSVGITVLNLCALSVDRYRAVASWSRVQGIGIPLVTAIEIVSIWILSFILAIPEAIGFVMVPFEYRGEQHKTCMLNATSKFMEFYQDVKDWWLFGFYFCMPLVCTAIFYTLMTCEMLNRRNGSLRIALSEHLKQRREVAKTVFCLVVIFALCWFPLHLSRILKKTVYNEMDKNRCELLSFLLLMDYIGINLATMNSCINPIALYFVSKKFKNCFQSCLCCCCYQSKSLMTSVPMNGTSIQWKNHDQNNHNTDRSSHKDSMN

[5] = biological target: Histamine H2 receptor (Homo sapiens, UniProt P25021); format: cell membranes, CHO-K1, Membrane; conditions: cho-k1; further: in other assays of this panel Not Active means under 50% inhibition at 10 µM
[6] = biological target: Protein kinase C alpha type (Homo sapiens, UniProt P17252); format: cell-based; conditions: sf9;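 further: inhibition of PKCalpha kinase activity measured in an enzyme assay with histone as the phosphorylation substrate; in other assays of this panel Not Active means under 50% inhibition at 10 µM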
[7] = biological target: T3, Receptor-type tyrosine-protein phosphatase C (Homo sapiens, UniProt P08575); parameters: species or system Escherichia coli
T3 sequence (P08575 whole entry): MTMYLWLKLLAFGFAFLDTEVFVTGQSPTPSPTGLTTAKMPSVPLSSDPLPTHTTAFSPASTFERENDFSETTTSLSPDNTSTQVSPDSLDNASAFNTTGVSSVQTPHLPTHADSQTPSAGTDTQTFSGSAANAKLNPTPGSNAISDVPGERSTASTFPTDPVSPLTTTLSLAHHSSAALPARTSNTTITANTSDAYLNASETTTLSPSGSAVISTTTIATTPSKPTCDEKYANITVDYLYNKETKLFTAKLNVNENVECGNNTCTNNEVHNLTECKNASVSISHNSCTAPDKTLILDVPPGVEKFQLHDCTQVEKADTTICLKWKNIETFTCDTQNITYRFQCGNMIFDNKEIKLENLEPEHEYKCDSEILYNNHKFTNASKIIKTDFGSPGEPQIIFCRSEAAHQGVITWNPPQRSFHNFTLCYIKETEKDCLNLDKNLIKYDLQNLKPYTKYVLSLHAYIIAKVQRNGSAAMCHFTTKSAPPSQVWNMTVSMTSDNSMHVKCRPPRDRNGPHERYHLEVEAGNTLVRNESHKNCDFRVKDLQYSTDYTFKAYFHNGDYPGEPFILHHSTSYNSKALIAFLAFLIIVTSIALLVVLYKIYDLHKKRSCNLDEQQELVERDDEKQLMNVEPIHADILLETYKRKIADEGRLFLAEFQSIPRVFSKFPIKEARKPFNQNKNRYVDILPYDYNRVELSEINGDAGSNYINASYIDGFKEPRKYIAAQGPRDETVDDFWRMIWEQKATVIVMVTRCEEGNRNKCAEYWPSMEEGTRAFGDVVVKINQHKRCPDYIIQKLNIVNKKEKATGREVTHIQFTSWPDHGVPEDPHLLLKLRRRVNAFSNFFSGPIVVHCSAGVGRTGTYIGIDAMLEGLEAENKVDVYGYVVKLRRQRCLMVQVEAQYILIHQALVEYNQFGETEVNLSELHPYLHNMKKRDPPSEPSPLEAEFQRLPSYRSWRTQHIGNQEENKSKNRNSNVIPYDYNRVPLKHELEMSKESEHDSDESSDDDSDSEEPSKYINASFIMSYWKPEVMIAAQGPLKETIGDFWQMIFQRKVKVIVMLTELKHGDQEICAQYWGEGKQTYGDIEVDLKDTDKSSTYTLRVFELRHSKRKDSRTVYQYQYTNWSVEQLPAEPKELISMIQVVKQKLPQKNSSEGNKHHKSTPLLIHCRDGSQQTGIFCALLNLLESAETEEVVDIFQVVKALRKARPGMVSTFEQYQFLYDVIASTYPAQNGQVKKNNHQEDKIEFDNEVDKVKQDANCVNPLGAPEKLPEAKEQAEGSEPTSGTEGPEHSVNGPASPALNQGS

Sequence of Histamine H2 receptor (P25021 whole entry): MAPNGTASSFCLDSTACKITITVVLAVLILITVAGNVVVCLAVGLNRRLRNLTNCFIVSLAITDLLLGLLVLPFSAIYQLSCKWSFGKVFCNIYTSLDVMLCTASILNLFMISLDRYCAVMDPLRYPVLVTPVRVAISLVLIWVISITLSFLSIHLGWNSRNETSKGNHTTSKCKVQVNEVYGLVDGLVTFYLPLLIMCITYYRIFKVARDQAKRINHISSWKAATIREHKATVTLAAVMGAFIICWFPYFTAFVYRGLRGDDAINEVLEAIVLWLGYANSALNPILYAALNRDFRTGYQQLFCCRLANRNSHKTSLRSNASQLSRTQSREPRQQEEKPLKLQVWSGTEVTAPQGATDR
Sequence of C-C chemokine receptor type 2 (P41597 whole entry): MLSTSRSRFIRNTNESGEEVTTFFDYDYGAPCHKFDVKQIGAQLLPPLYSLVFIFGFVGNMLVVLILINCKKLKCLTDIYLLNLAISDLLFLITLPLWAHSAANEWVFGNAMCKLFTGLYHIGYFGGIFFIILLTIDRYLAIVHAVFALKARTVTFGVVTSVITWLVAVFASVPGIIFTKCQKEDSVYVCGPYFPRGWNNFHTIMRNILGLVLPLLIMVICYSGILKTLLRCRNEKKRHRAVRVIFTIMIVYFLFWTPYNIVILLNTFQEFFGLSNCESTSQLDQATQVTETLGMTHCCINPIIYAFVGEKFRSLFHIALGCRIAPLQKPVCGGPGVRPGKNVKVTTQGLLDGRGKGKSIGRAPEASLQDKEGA

Oc1ccc(/C=C/c2cc(O)cc(O)c2)cc1 [RESVERATROL]
Not Active: IC50 [1] | IC50 [2] | Ki [2] | IC50 [3] | IC50 [4] | IC50 [5] | IC50 [6] | IC50 [7]

CC(N)C12CC3CC(CC(C3)C1)C2 (stereo not given) [RIMANTADINE]
Not Active: IC50 [1] | IC50 [2] | Ki [2] | IC50 [3] | IC50 [4] | IC50 [5] | IC50 [6] | IC50 [7]

CS(=O)(=O)c1ccc(C2=C(c3ccccc3)C(=O)OC2)cc1 [ROFECOXIB]
Not Active: IC50 [1] | IC50 [2] | Ki [2] | IC50 [3] | IC50 [4] | IC50 [5] | IC50 [6] | IC50 [7]

C=CCc1ccc2c(c1)OCO2 [SAFROLE]
Not Active: IC50 [1] | IC50 [2] | Ki [2] | IC50 [3] | IC50 [4] | IC50 [5] | IC50 [6] | IC50 [7]

CCC(C)(C)C(=O)O[C@H]1C[C@@H](C)C=C2C=C[C@H](C)[C@H](CC[C@@H]3C[C@@H](O)CC(=O)O3)[C@H]21 [SIMVASTATIN]
Not Active: IC50 [1] | IC50 [2] | Ki [2] | IC50 [3] | IC50 [4] | IC50 [5] | IC50 [6] | IC50 [7]

O=[As][O-].[Na+] [SODIUM ARSENITE]
Not Active: IC50 [1] | IC50 [2] | Ki [2] | IC50 [3] | IC50 [4] | IC50 [5] | IC50 [6] | IC50 [7]

C1CCN2C[C@@H]3C[C@@H](CN4CCCC[C@@H]34)[C@H]2C1 [SPARTEINE]
Not Active: IC50 [1] | IC50 [2] | Ki [2] | IC50 [3] | IC50 [4] | IC50 [5] | IC50 [6] | IC50 [7]

C[C@]12CCC(=O)C[C@@H]1CC[C@@H]1[C@@H]2CC[C@]2(C)[C@@H](O)CC[C@@H]12 [STANOLONE]
Not Active: IC50 [1] | IC50 [2] | Ki [2] | IC50 [3] | IC50 [4] | IC50 [5] | IC50 [6] | IC50 [7]

Cc1cn([C@H]2C=C[C@@H](CO)O2)c(=O)[nH]c1=O [STAVUDINE]
Not Active: IC50 [1] | IC50 [2] | Ki [2] | IC50 [3] | IC50 [4] | IC50 [5] | IC50 [6] | IC50 [7]

CC1(C)[C@H](C(=O)O)N2C(=O)C[C@H]2S1(=O)=O [SULBACTAM]
Not Active: IC50 [1] | IC50 [2] | Ki [2] | IC50 [3] | IC50 [4] | IC50 [5] | IC50 [6] | IC50 [7]
